According to ChEMBL document CHEMBL1671662, “In vitro activities of telavancin and six comparator agents against anaerobic bacterial isolates” (2009):
Converted amounts (≈) assume the structure as drawn.

Columns and labels:
Bacteroides fragilis = experiment: Antibacterial activity against Bacteroides fragilis by CLSI M11-A6 agar dilution method; assay type: functional
Eggerthella lenta = experiment: Antibacterial activity against Eggerthella lenta by CLSI M11-A6 agar dilution method; assay type: functional
[1] = system: Peptoniphilus asaccharolyticus; experiment: Antibacterial activity against Peptoniphilus asaccharolyticus by CLSI M11-A6 agar dilution method; assay type: functional
Clostridium bartlettii = experiment: Antibacterial activity against Clostridium bartlettii by CLSI M11-A6 agar dilution method; assay type: functional; details: Intestinibacter bartlettii
[2] = system: Bifidobacterium pseudolongum; experiment: Antibacterial activity against Bifidobacterium pseudolongum by CLSI M11-A6 agar dilution method; assay type: functional
Ruminococcus albus = experiment: Antibacterial activity against Ruminococcus albus by CLSI M11-A6 agar dilution method; assay type: functional; details: Hominimerdicola alba
[3] = system: Prevotella melaninogenica; experiment: Antibacterial activity against Prevotella melaninogenica by CLSI M11-A6 agar dilution method; assay type: functional
Streptococcus anginosus = experiment: Antibacterial activity against Streptococcus anginosus by CLSI M11-A6 agar dilution method; assay type: functional
Phocaeicola vulgatus = experiment: Antibacterial activity against Bacteroides vulgatus by CLSI M11-A6 agar dilution method; assay type: functional
Clostridium disporicum = experiment: Antibacterial activity against Clostridium disporicum by CLSI M11-A6 agar dilution method; assay type: functional
Holdemania filiformis = experiment: Antibacterial activity against Holdemania filiformis by CLSI M11-A6 agar dilution method; assay type: functional
[4] = system: Paraclostridium bifermentans; experiment: Antibacterial activity against Clostridium bifermentans by CLSI M11-A6 agar dilution method; assay type: functional
[5] = system: Bifidobacterium adolescentis; experiment: Antibacterial activity against Bifidobacterium adolescentis by CLSI M11-A6 agar dilution method; assay type: functional
[6] = system: Propionibacterium propionicum; experiment: Antibacterial activity against Propionibacterium propionicus by CLSI M11-A6 agar dilution method; assay type: functional; details: Arachnia propionica
Clostridium tertium = experiment: Antibacterial activity against Clostridium tertium by CLSI M11-A6 agar dilution method; assay type: functional
Anaerococcus tetradius = experiment: Antibacterial activity against Anaerococcus tetradius by CLSI M11-A6 agar dilution method; assay type: functional
[7] = system: Streptococcus constellatus; experiment: Antibacterial activity against Streptococcus constellatus by CLSI M11-A6 agar dilution method; assay type: functional
[Clostridium] innocuum = Antibacterial activity against Clostridium innocuum by CLSI M11-A6 agar dilution method; assay type: functional
Bifidobacterium dentium = experiment: Antibacterial activity against Bifidobacterium dentium by CLSI M11-A6 agar dilution method; assay type: functional
[8] = system: Ruminococcus flavefaciens; experiment: Antibacterial activity against Ruminococcus flavefaciens by CLSI M11-A6 agar dilution method; assay type: functional
Prevotella intermedia [9] = experiment: Antibacterial activity against Prevotella P intermedia by CLSI M11-A6 agar dilution method; assay type: functional
Ruminococcus torques = experiment: Antibacterial activity against Ruminococcus torques by CLSI M11-A6 agar dilution method; assay type: functional; details: Mediterraneibacter torques
Clostridium scindens = experiment: Antibacterial activity against Clostridium scindens by CLSI M11-A6 agar dilution method; assay type: functional
[10] = Antibacterial activity against Bifidobacterium infantis by CLSI M11-A6 agar dilution method; assay type: functional, Bifidobacterium longum subsp. infantis; details: Bifidobacterium longum
Fusobacterium mortiferum = experiment: Antibacterial activity against Fusobacterium mortiferum by CLSI M11-A6 agar dilution method; assay type: functional
Prevotella intermedia [11] = experiment: Antibacterial activity against Prevotella intermedia by CLSI M11-A6 agar dilution method; assay type: functional
Thomasclavelia ramosa = experiment: Antibacterial activity against Clostridium ramosum by CLSI M11-A6 agar dilution method; assay type: functional
Prevotella buccae = experiment: Antibacterial activity against Prevotella buccae by CLSI M11-A6 agar dilution method; assay type: functional; details: Segatella buccae
Clostridium sporogenes = experiment: Antibacterial activity against Clostridium sporogenes by CLSI M11-A6 agar dilution method; assay type: functional
Prevotella oris = experiment: Antibacterial activity against Prevotella oris by CLSI M11-A6 agar dilution method; assay type: functional; details: Segatella oris
Prevotella denticola = experiment: Antibacterial activity against Prevotella P denticola by CLSI M11-A6 agar dilution method; assay type: functional
Bifidobacterium bifidum = experiment: Antibacterial activity against Bifidobacterium bifidum by CLSI M11-A6 agar dilution method; assay type: functional
Bifidobacterium breve = experiment: Antibacterial activity against Bifidobacterium breve by CLSI M11-A6 agar dilution method; assay type: functional
Clostridium spiroforme = experiment: Antibacterial activity against Clostridium spiroforme by CLSI M11-A6 agar dilution method; assay type: functional; details: Thomasclavelia spiroformis
[12] = system: Enterocloster clostridioformis; experiment: Antibacterial activity against Clostridium clostridioforme by CLSI M11-A6 agar dilution method; assay type: functional
Clostridium = experiment: Antibacterial activity against Clostridium hypermegas by CLSI M11-A6 agar dilution method; assay type: functional
Hoylesella oralis = experiment: Antibacterial activity against Prevotella oralis by CLSI M11-A6 agar dilution method; assay type: functional
Finegoldia magna = experiment: Antibacterial activity against Finegoldia magna by CLSI M11-A6 agar dilution method; assay type: functional
Bifidobacterium longum = experiment: Antibacterial activity against Bifidobacterium longum by CLSI M11-A6 agar dilution method; assay type: functional

CN[C@H](CC(C)C)C(=O)N[C@H]1C(=O)N[C@@H](CC(N)=O)C(=O)N[C@H]2C(=O)N[C@H]3C(=O)N[C@H](C(=O)N[C@H](C(=O)O)c4cc(O)cc(O)c4-c4cc3ccc4O)[C@H](O)c3ccc(c(Cl)c3)Oc3cc2cc(c3O[C@@H]2O[C@H](CO)[C@@H](O)[C@H](O)[C@H]2O[C@H]2C[C@](C)(N)[C@H](O)[C@H](C)O2)Oc2ccc(cc2Cl)[C@H]1O [VANCOMYCIN]
MIC50 (Bacteroides fragilis): 64 µg/mL (≈ 44.2 µM)
MIC90 (Bacteroides fragilis): 64 µg/mL (≈ 44.2 µM)
MIC50 (Eggerthella lenta): 0.5 µg/mL (≈ 0.345 µM)
MIC90 (Eggerthella lenta): 4 µg/mL (≈ 2.76 µM)
MIC50 [1]: 0.5 µg/mL (≈ 0.345 µM)
MIC90 [1]: 1 µg/mL (≈ 0.69 µM)
MIC50 (Clostridium bartlettii): 1 µg/mL (≈ 0.69 µM)
MIC90 (Clostridium bartlettii): 4 µg/mL (≈ 2.76 µM)
MIC50 [2]: 0.5 µg/mL (≈ 0.345 µM)
MIC90 [2]: 4 µg/mL (≈ 2.76 µM)
MIC50 (Ruminococcus albus): 0.5 µg/mL (≈ 0.345 µM)
MIC90 (Ruminococcus albus): 1 µg/mL (≈ 0.69 µM)
MIC50 [3]: 32 µg/mL (≈ 22.1 µM)
MIC90 [3]: > 128 µg/mL
MIC50 (Streptococcus anginosus): 2 µg/mL (≈ 1.38 µM)
MIC90 (Streptococcus anginosus): 2 µg/mL (≈ 1.38 µM)
MIC50 (Phocaeicola vulgatus): 64 µg/mL (≈ 44.2 µM)
MIC90 (Phocaeicola vulgatus): 128 µg/mL (≈ 88.3 µM)
MIC50 (Clostridium disporicum): 1 µg/mL (≈ 0.69 µM)
MIC90 (Clostridium disporicum): 4 µg/mL (≈ 2.76 µM)
MIC50 (Holdemania filiformis): 0.5 µg/mL (≈ 0.345 µM)
MIC90 (Holdemania filiformis): 4 µg/mL (≈ 2.76 µM)
MIC50 [4]: 1 µg/mL (≈ 0.69 µM)
MIC90 [4]: 4 µg/mL (≈ 2.76 µM)
MIC50 [5]: 0.5 µg/mL (≈ 0.345 µM)
MIC90 [5]: 4 µg/mL (≈ 2.76 µM)
MIC50 [6]: 0.5 µg/mL (≈ 0.345 µM)
MIC90 [6]: 4 µg/mL (≈ 2.76 µM)
MIC50 (Clostridium tertium): 1 µg/mL (≈ 0.69 µM)
MIC90 (Clostridium tertium): 4 µg/mL (≈ 2.76 µM)
MIC50 (Anaerococcus tetradius): 0.5 µg/mL (≈ 0.345 µM)
MIC90 (Anaerococcus tetradius): 1 µg/mL (≈ 0.69 µM)
MIC50 [7]: 2 µg/mL (≈ 1.38 µM)
MIC90 [7]: 2 µg/mL (≈ 1.38 µM)
MIC ([Clostridium] innocuum): 16 µg/mL (≈ 11 µM)
MIC50 ([Clostridium] innocuum): 16 µg/mL (≈ 11 µM)
MIC90 ([Clostridium] innocuum): 16 µg/mL (≈ 11 µM)
MIC50 (Bifidobacterium dentium): 0.5 µg/mL (≈ 0.345 µM)
MIC90 (Bifidobacterium dentium): 4 µg/mL (≈ 2.76 µM)
MIC50 [8]: 0.5 µg/mL (≈ 0.345 µM)
MIC90 [8]: 1 µg/mL (≈ 0.69 µM)
MIC50 (Prevotella intermedia [9]): 32 µg/mL (≈ 22.1 µM)
MIC90 (Prevotella intermedia [9]): > 128 µg/mL
MIC50 (Ruminococcus torques): 0.5 µg/mL (≈ 0.345 µM)
MIC90 (Ruminococcus torques): 1 µg/mL (≈ 0.69 µM)
MIC50 (Clostridium scindens): 1 µg/mL (≈ 0.69 µM)
MIC90 (Clostridium scindens): 4 µg/mL (≈ 2.76 µM)
MIC50 [10]: 0.5 µg/mL (≈ 0.345 µM)
MIC90 [10]: 4 µg/mL (≈ 2.76 µM)
MIC (Fusobacterium mortiferum): > 128 µg/mL
MIC50 (Fusobacterium mortiferum): > 128 µg/mL
MIC90 (Fusobacterium mortiferum): > 128 µg/mL
MIC50 (Prevotella intermedia [11]): 32 µg/mL (≈ 22.1 µM)
MIC90 (Prevotella intermedia [11]): > 128 µg/mL
MIC50 (Thomasclavelia ramosa): 8 µg/mL (≈ 5.52 µM)
MIC90 (Thomasclavelia ramosa): 8 µg/mL (≈ 5.52 µM)
MIC50 (Prevotella buccae): 32 µg/mL (≈ 22.1 µM)
MIC90 (Prevotella buccae): > 128 µg/mL
MIC50 (Clostridium sporogenes): 1 µg/mL (≈ 0.69 µM)
MIC90 (Clostridium sporogenes): 4 µg/mL (≈ 2.76 µM)
MIC50 (Prevotella oris): 32 µg/mL (≈ 22.1 µM)
MIC90 (Prevotella oris): > 128 µg/mL
MIC50 (Prevotella denticola): 32 µg/mL (≈ 22.1 µM)
MIC90 (Prevotella denticola): > 128 µg/mL
MIC50 (Bifidobacterium bifidum): 0.5 µg/mL (≈ 0.345 µM)
MIC90 (Bifidobacterium bifidum): 4 µg/mL (≈ 2.76 µM)
MIC50 (Bifidobacterium breve): 0.5 µg/mL (≈ 0.345 µM)
MIC90 (Bifidobacterium breve): 4 µg/mL (≈ 2.76 µM)
MIC50 (Clostridium spiroforme): 1 µg/mL (≈ 0.69 µM)
MIC90 (Clostridium spiroforme): 4 µg/mL (≈ 2.76 µM)
MIC50 [12]: 2 µg/mL (≈ 1.38 µM)
MIC90 [12]: 2 µg/mL (≈ 1.38 µM)
MIC50 (Clostridium): 1 µg/mL (≈ 0.69 µM)
MIC90 (Clostridium): 4 µg/mL (≈ 2.76 µM)
MIC50 (Hoylesella oralis): 32 µg/mL (≈ 22.1 µM)
MIC90 (Hoylesella oralis): > 128 µg/mL
MIC50 (Finegoldia magna): 0.5 µg/mL (≈ 0.345 µM)
MIC90 (Finegoldia magna): 1 µg/mL (≈ 0.69 µM)
MIC50 (Bifidobacterium longum): 0.5 µg/mL (≈ 0.345 µM)
MIC90 (Bifidobacterium longum): 4 µg/mL (≈ 2.76 µM)
